Experimental data reported in US5336673A, “3-substituted cephem compounds” (priority 1990, dated 1994).
≈ marks a conversion by molar mass, not a printed value.

Key:
[1] = tested on: enterobacteria; details: against the enterobacteria; cited from earlier work
[2] = target: T1, β-lactamase from Citrobacter freundii (Citrobacter freundii, UniProt P05193); assay: Stability against β-lactamase, relative hydrolysis; format: biochemical; details: Citrobacter freundii enzyme; 100 μM; relative(percentage), Cephaloridine taken as 100; OD at 260 nm
T1 construct: directly isolated from Enterobacter cloacae P99, E. coli TEM and Citrobacter freundii; endogenous in cells
Description: (§1) In order to establish the usefulness in clinical applications of the compounds provided by the invention, the compound of Example 18 was tested for stability against the β-lactamase and for antibacterial activity on systemic infection model.
(§2) First, the stability against the β-lactamase was tested by determining the relative(percentage) hydrolysis of the compound of Example 18, relative to that of Cephaloridine, taking the absolute rate of Cephaloridine as 100.
(§3) The β-lactamases employed in the test were directly isolated from Enterobacter cloacae P99, E. coli TEM and Citrobacter freundii, and the antibiotics for comparison were Cephaloridine, Cephradine, Cefoperazone and Cefotaxime.
(§4) Cephaloridine, other known antibiotics and the compound of Example 18 were reacted with each of the enzymes isolated from the strains and the OD were determined at 260 nm, λmax of Cephaloridine. The relative hydrolysis of various compounds were calculated relative to the OD of Cephaloridine.

[3] = target: T2, β-lactamase from E. coli TEM (Escherichia coli, UniProt P62593); assay: Stability against β-lactamase, relative hydrolysis; format: biochemical; details: E. coli TEM enzyme; 100 μM; relative(percentage), Cephaloridine taken as 100; OD at 260 nm
T2 construct: directly isolated from Enterobacter cloacae P99, E. coli TEM and Citrobacter freundii; endogenous in cells; host or cells: E. coli TEM (plasmid-carried enzyme of the strain)
Description: as §1, §2, §3, §4

[4] = tested on: Staphylococcus aureus 503; assay: Antibacterial activity, MIC by Agar dilution method, standard test strain 6; format: cell-based; details: 10^7 CFU/ml, 37° C., 18 hours
Description: (§5) The antibacterial activity was determined by an Agar dilution method as described below.
(§6) That is, the two-fold serial dilutions of the antibacterial compounds (1000 μg compound/ml) were prepared and dispersed in Muller Hinton Agar in a petri dish to a concentration of 100~0.002 μg/ml. The culture broths of standard test strains were inoculated on the medium to a concentration 10^7 CFU/ml, and incubated at 37° C. for 18 hours. The concentration of compounds(I) at which the strains were not grown was regarded as minimum inhibition concentration (MIC).
(§7) The results of antibacterial activity test of the representative examples of the compound (I) against 20 standard test strains shown in terms of MIC were indicated in Table 1.
6. Staphylococcus aureus 503

[5] = tested on: Enterobacter cloacae P99; assay: Antibacterial activity, MIC by Agar dilution method, standard test strain 19; format: cell-based; details: P99, 18 h
Description: as §5, §6, §7
19. Enterobacter cloacae P99

[6] = tested on: Pseudomonas aeruginosa 1771; assay: Antibacterial activity, MIC by Agar dilution method, standard test strain 14; format: cell-based; details: 10^7 CFU/ml, 37° C., 18 hours
Description: as §5, §6, §7
14. Pseudomonas aeruginosa 1771

[7] = tested on: Escherichia coli DC 2; assay: Antibacterial activity, MIC by Agar dilution method, standard test strain 9; format: cell-based; details: Escherichia coli, DC2, 18 h
Description: as §5, §6, §7

[8] = tested on: Pseudomonas aeruginosa 9027; assay: Antibacterial activity, MIC by Agar dilution method, standard test strain 12; format: cell-based; details: 10^7 CFU/ml, 37° C., 18 hours
Description: as §5, §6, §7
12. Pseudomonas aeruginosa 9027

[9] = tested on: Escherichia coli O 55; assay: Antibacterial activity, MIC by Agar dilution method, standard test strain 7; format: cell-based; details: O55; Escherichia coli O 55; 10^7 CFU/ml, 37° C., 18 hours; read-out: MIC
Description: as §5, §6, §7

[10] = tested on: Escherichia coli 1507E; assay: Antibacterial activity, MIC by Agar dilution method, standard test strain 11; format: cell-based; details: Escherichia coli 1507E; 10^7 CFU/ml, 37° C., 18 hours; read-out: MIC
Description: as §5, §6, §7

[11] = tested on: Salmonella typhimurium; assay: Antibacterial activity, MIC by Agar dilution method, standard test strain 16; format: cell-based; details: Salmonella enterica, 10^7 CFU/ml, 37° C., 18 hours
Description: as §5, §6, §7
16. Salmonella typhimurium

[12] = tested on: Streptococcus pyogenes A 308; assay: Antibacterial activity, MIC by Agar dilution method, standard test strain 1; format: cell-based; details: A308, 10^7 CFU/ml, 37° C., 18 hours
Description: as §5, §6, §7
1. Streptococcus pyogenes A 308

[13] = tested on: Pseudomonas aeruginosa 1771M; assay: Antibacterial activity, MIC by Agar dilution method, standard test strain 15; format: cell-based; details: 18 h
Description: as §5, §6, §7
15. Pseudomonas aeruginosa 1771M

[14] = tested on: Klebsiella aerogenes 1522E; assay: Antibacterial activity, MIC by Agar dilution method, standard test strain 18; format: cell-based; details: Klebsiella aerogenes 1522E; 10^7 CFU/ml, 37° C., 18 hours; read-out: MIC
Description: as §5, §6, §7
18. Klebsiella aerogenes 1522E

[15] = tested on: Klebsiella oxytoca 1082E; assay: Antibacterial activity, MIC by Agar dilution method, standard test strain 17; format: cell-based; details: 10^7 CFU/ml, 37° C., 18 hours
Description: as §5, §6, §7

[16] = tested on: Staphylococcus aureus SG 511; assay: Antibacterial activity, MIC by Agar dilution method, standard test strain 4; format: cell-based; details: SG511, 10^7 CFU/ml, 37° C., 18 hours
Description: as §5, §6, §7
4. Staphylococcus aureus SG 511

[17] = tested on: Pseudomonas aeruginosa 1592E; assay: Antibacterial activity, MIC by Agar dilution method, standard test strain 13; format: cell-based; details: 10^7 CFU/ml, 37° C., 18 hours
Description: as §5, §6, §7
13. Pseudomonas aeruginosa 1592E

[18] = tested on: Enterobacter cloacae 1321E; assay: Antibacterial activity, MIC by Agar dilution method, standard test strain 20; format: cell-based; details: Enterobacter cloacae 1321E; 10^7 CFU/ml, 37° C., 18 hours; read-out: MIC
Description: as §5, §6, §7
20. Enterobacter cloacae 1321E

[19] = tested on: Staphyloccus aureus 285; assay: Antibacterial activity, MIC by Agar dilution method, standard test strain 5; format: cell-based; details: 10^7 CFU/ml, 37° C., 18 hours
Description: as §5, §6, §7
5. Staphyloccus aureus 285

[20] = tested on: Streptococcus faecium MD 86; assay: Antibacterial activity, MIC by Agar dilution method, standard test strain 3; format: cell-based; details: Enterococcus faecium, MD86, 10^7 CFU/ml, 37° C., 18 hours
Description: as §5, §6, §7
3. Streptococcus faecium MD 86

[21] = target: T3, β-lactamase from Enterobacter cloacae P99 (Enterobacter cloacae, UniProt P05364); assay: Stability against β-lactamase, relative hydrolysis; format: biochemical; details: Enterobacter cloacae P99 enzyme; 100 μM; relative(percentage), Cephaloridine taken as 100; OD at 260 nm
T3 construct: directly isolated from Enterobacter cloacae P99, E. coli TEM and Citrobacter freundii; endogenous in cells; host or cells: Enterobacter cloacae P99
Description: as §3
The relative hydrolysis of various compounds were calculated relative to the OD of Cephaloridine.

[22] = tested on: Streptococcus pyogenes A 77; assay: Antibacterial activity, MIC by Agar dilution method, standard test strain 2; format: cell-based; details: A77, 10^7 CFU/ml, 37° C., 18 hours
Description: as §5, §6, §7
2. Streptococcus pyogenes A 77

[23] = tested on: Escherichia coli TEM; assay: Antibacterial activity, MIC by Agar dilution method, standard test strain 10; format: cell-based; details: Escherichia coli TEM; 10^7 CFU/ml, 37° C., 18 hours; read-out: MIC
Description: as §5, §6, §7

[24] = tested on: Escherichia coli DC O; assay: Antibacterial activity, MIC by Agar dilution method, standard test strain 8; format: cell-based; details: Escherichia coli DC O; 10^7 CFU/ml, 37° C., 18 hours; read-out: MIC
Description: as §5, §6, §7

[25] = tested on: Pseudomonas; details: against Pseudomonas, compared with other known cephalosporins; cited from earlier work
[26] = tested on: Staphylococcus; details: against Staphylococcus; cited from earlier work

T2 sequence (P62593 24-286 limits assumed): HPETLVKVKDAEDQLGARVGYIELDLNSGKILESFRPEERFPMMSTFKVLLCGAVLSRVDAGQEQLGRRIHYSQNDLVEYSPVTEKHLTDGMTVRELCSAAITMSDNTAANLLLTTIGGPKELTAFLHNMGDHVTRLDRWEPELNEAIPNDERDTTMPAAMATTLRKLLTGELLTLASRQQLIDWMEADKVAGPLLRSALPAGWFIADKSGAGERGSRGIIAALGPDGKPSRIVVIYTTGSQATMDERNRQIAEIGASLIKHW
T3 sequence (P05364 21-381): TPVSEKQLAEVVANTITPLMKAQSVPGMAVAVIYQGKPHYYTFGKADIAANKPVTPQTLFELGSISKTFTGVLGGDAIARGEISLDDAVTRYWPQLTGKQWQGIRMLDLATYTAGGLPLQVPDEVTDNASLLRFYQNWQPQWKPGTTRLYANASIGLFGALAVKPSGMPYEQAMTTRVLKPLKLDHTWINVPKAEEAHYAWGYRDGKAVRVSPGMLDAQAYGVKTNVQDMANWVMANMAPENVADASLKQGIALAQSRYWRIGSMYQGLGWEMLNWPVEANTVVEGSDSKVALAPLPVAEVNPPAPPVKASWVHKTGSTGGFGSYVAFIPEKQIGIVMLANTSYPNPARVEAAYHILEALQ
T1 sequence (P05193 21-381): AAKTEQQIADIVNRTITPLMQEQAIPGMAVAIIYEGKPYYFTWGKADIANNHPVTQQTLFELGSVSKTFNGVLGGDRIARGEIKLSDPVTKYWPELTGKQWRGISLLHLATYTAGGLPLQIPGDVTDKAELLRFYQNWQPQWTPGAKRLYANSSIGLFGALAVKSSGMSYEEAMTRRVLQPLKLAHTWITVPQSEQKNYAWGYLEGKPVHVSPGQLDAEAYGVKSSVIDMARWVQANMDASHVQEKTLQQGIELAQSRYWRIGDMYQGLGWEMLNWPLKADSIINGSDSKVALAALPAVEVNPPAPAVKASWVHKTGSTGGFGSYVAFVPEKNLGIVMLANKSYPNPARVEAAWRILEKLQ

For `CO/N=C(\C(=O)N[C@@H]1C(=O)N2C(C(=O)O)=C(CSc3nnnn3C)CS[C@H]12)c1csc(N)n1` [Cefmenoxime], the “antibacterial activity (in words)” value [1] is given as “strong antibacterial activities”.

In the case of `CCN1CCN(C(=O)N[C@@H](C(=O)N[C@@H]2C(=O)N3C(C(=O)O)=C(CSc4nnnn4C)CS[C@H]23)c2ccc(O)cc2)C(=O)C1=O` [Cefoperazone], the “Relative hydrolysis by β-lactamase” value [2] is reported as 1.2 and the “Relative hydrolysis by β-lactamase” value [3] is reported as 38.6.

Work on `CO/N=C(\C(=O)N[C@@H]1C(=O)N2C(C(=O)O)=C(COC(C)=O)CS[C@H]12)c1csc(N)n1` [Cefotaxime, reference compound] yielded an MIC [4] of 0.781 µg/mL (≈ 1.71 µM), an MIC [5] of 100 µg/mL (≈ 220 µM) and an MIC [6] of 6.25 µg/mL (≈ 13.7 µM). For the same compound, the MIC [7] was 0.013 µg/mL (≈ 0.0285 µM), the MIC [8] was 12.5 µg/mL (≈ 27.4 µM) and the MIC [9] was 7 ng/mL (≈ 0.0154 µM). The MIC [10] was 0.025 µg/mL (≈ 0.0549 µM), the MIC [11] was 0.025 µg/mL (≈ 0.0549 µM) and the MIC [12] was 7 ng/mL (≈ 0.0154 µM). The MIC [13] was 0.098 µg/mL (≈ 0.215 µM), the MIC [14] was 0.013 µg/mL (≈ 0.0285 µM) and the MIC [15] was 0.781 µg/mL (≈ 1.71 µM). For the same compound, the MIC [16] was 1.56 µg/mL (≈ 3.43 µM), the MIC [17] was 12.5 µg/mL (≈ 27.4 µM) and the MIC [18] was 0.013 µg/mL (≈ 0.0285 µM). The MIC [19] was 1.56 µg/mL (≈ 3.43 µM), the MIC [20] was 100 µg/mL (≈ 220 µM) and the “Relative hydrolysis by β-lactamase” value [21] was 0.0. The MIC [22] was 4 ng/mL (≈ 0.00878 µM), the MIC [23] was 0.025 µg/mL (≈ 0.0549 µM) and the “Relative hydrolysis by β-lactamase” value [2] was 0.6. The “Relative hydrolysis by β-lactamase” value [3] was 0.6, the “antibacterial activity (in words)” value [1] was “strong antibacterial activities” and the MIC [24] was 0.025 µg/mL (≈ 0.0549 µM).

For `CC(C)(O/N=C(\C(=O)N[C@@H]1C(=O)N2C(C(=O)[O-])=C(C[n+]3ccccc3)CS[C@H]12)c1csc(N)n1)C(=O)O` [Ceftazidime], the “antibacterial activity (in words)” value [25] is listed as “relatively stronger”, the “antibacterial activity (in words)” value [1] is listed as “strong antibacterial activities” and the “antibacterial activity (in words)” value [26] is listed as “poor antibacterial activity”.

For `CO/N=C(\C(=O)N[C@@H]1C(=O)N2C(C(=O)O)=C(CSc3nc(=O)c(=O)[nH]n3C)CS[C@H]12)c1csc(N)n1` [Ceftriaxone], the “antibacterial activity (in words)” value [1] is listed as “strong antibacterial activities”.

In the case of `O=C(Cc1cccs1)N[C@@H]1C(=O)N2C(C(=O)[O-])=C(C[n+]3ccccc3)CS[C@H]12` [Cephaloridine], the “Relative hydrolysis by β-lactamase” value [21] is reported as 100, the “Relative hydrolysis by β-lactamase” value [2] is reported as 100 and the “Relative hydrolysis by β-lactamase” value [3] is reported as 100.

In the case of `CC1=C(C(=O)O)N2C(=O)[C@@H](NC(=O)[C@H](N)C3=CCC=CC3)[C@H]2SC1` [Cephradine], the “Relative hydrolysis by β-lactamase” value [21] is reported as 14.9, the “Relative hydrolysis by β-lactamase” value [2] is reported as 13.6 and the “Relative hydrolysis by β-lactamase” value [3] is reported as 0.8.
